pEC50: −log10 of the molar value.
Legend:
[1] = biological target: T1, PPARγ (Homo sapiens, UniProt P37231); experiment: aP2 Assay for PPAR Gamma Agonists (bDNA aP2 mRNA, preadipocytes); assay type: cell-based; details: for PPARγ FI: fold induction, unbracketed values, PPARγ standard FI = 70.3
T1 construct: Following the challenge of the preadipocytes, cells may be lysed with lysis buffer; endogenous in cells; host or cells: preadipocytes
T1 sequence (P37231 1-505): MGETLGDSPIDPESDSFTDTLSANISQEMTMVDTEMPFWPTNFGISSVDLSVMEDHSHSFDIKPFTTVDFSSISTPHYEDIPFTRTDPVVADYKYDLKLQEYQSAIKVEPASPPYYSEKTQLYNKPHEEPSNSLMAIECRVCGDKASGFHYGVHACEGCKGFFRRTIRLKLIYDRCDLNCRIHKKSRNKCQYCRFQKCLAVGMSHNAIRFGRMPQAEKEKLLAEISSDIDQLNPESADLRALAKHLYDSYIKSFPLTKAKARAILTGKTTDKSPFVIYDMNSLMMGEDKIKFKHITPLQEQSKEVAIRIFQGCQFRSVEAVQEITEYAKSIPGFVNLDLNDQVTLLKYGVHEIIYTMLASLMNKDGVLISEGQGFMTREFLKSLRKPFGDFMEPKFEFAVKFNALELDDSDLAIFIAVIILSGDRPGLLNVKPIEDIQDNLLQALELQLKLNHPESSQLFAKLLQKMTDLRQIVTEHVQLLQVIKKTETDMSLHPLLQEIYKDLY
Text: aP2 Assay for PPAR Gamma Agonists
The procedure is described in detail in Burris et al., Molecular Endocrinology 1999, 13:410, which is hereby incorporated by reference in its entirety, and aP2 assay results of agonist intrinsic activity may be presented as fold increase over vehicle in induction of aP2 mRNA production.
Twenty-four hours after the initial seeding of the 96-well plates by hand (around 20,000/well), the differentiation assay may be initiated. Medium may be removed and replaced with 150 μl of differentiation medium containing vehicle (DMSO) or test compounds. Cells may be returned to incubator for 24 hours culture. At the termination of the challenge, medium may be removed and 100 ul of lysis buffer may be added to initiate the bDNA aP2 mRNA assay. The branched DNA assay may be performed according to the manufacturer's protocol (Bayer Diagnostics; Emeryville, Calif.). Result may be expressed as the fold increase of aP2 mRNA production activated over vehicle controls. EC50's and Emax may be determined by non-linear regression with a sigmoidal fit curve.
Following the challenge of the preadipocytes, cells may be lysed with lysis buffer (Bayer Diagnostics) containing the aP2 oligonucleotides. After a 15 minute incubation at 53° C. or 30 minutes at 37° C. incubator, 70 ul of the lysis buffer from each well may be added to a corresponding capture well (preincubated with 70 ul of blocking buffer (Bayer Diagnostics)). The capture plate may be incubated overnight at 53° C. in a plate incubator (Bayer Diagnostics). After this incubation, the bDNA and labeled probes may be annealed as directed by the manufacturer. Following a 30-minute incubation with the luminescent alkaline phosphatase substrate, dioxitane, the luminescence may be quantitated in a Dynex MLX microtiter plate luminometer. Oligonucleotide probes designed to anneal to the aP2 mRNA and function in the bDNA mRNA detection system are designed with ProbeDesigner software (Bayer Diagnostics). This software package analyzes a target sequence of interest with a series of algorithms in order to determine which regions of the sequence can perform as locations for capture, label, or spacer probe annealing. The sequences of the oligonucleotides are as follows: […]

[2] = biological target: T2, PPARδ (Homo sapiens, UniProt Q03181); experiment: Transfection Assay for PPARδ Receptors (PPAR-Gal4 receptor / Gal4-Luciferase Reporter, HEK293 cells); assay type: cell-based; details: for PPARδ FI: fold induction, unbracketed values, PPARδ standard FI = 36.1
T2 sequence (Q03181 171-441 limits assumed): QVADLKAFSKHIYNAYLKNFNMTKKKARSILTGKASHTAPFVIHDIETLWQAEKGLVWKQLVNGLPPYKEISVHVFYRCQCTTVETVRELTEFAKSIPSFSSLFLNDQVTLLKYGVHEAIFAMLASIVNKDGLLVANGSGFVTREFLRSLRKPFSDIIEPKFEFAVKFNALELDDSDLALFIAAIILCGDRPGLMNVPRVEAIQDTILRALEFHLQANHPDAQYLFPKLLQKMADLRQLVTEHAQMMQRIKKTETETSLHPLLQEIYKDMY
Procedure: Transfection Assay for PPARδ Receptors
HEK293 cells were grown in DMEM/F-12 Media supplemented with 10% FBS and glutamine (GIBCOBRL). The cells were co-transfected with DNA for PPAR-Gal4 receptor and Gal4-Luciferase Reporter using the DMRIE-C Reagent. On the following day, the DNA-containing medium were replaced with 5% Charcoal treated FBS growth medium. After six hours, cells were seeded in 96 well plate and incubated at 37° C. in CO2 incubator overnight. Cells were challenged by test compounds and incubated for 24 hours at 37° C. in 5% CO2 incubator. Luciferase activity was assayed using the Steady-Glo Luciferase Assay Kit from Promega. DMRIE-C Reagent was purchased from GIBCO Cat. No. 10459-014. OPTI-MEM I Reduced Serum Medium was purchased from GIBCO Cat. No. 31985. Steady-Glo Luciferase Assay Kit was obtained from Promega Part# E254B.

[3] = Comparison of activity of (R) and (S) isomer (test not stated); details: chiral center on C-2 of the indane ring
Text: Unless otherwise mentioned or indicated, the chemical designation of compounds denotes the mixture of all possible stereochemically isomeric forms, said mixtures containing all diastereomers and enantiomers of the basic molecular structure. More in particular, stereogenic centers may have the (R)- or (S)-configuration; substituents on bivalent cyclic saturated radicals may have either the cis- or trans-configuration. The invention encompasses stereochemically isomeric forms including diastereoisomers, as well as mixtures thereof in any proportion of the disclosed compounds. The disclosed compounds may also exist in their tautomeric forms. Such forms although not explicitly indicated in the above and following formulae are intended to be included within the scope of the present invention. For example, in compound 2.1 or Example 3, there is a chiral center on the C-2 of the indane ring.

[4] = biological target: T3, PPARα (Rattus norvegicus, UniProt P37230); experiment: HD bDNA Assay (HD gene induction, H4IIE rat hepatoma cell line); assay type: cell-based; details: assay not named, values equal the PPARα column
T3 construct: H4IIE rat hepatoma cell line was obtained from ATCC; host or cells: H4IIE rat hepatoma cells
T3 sequence (P37230 1-468): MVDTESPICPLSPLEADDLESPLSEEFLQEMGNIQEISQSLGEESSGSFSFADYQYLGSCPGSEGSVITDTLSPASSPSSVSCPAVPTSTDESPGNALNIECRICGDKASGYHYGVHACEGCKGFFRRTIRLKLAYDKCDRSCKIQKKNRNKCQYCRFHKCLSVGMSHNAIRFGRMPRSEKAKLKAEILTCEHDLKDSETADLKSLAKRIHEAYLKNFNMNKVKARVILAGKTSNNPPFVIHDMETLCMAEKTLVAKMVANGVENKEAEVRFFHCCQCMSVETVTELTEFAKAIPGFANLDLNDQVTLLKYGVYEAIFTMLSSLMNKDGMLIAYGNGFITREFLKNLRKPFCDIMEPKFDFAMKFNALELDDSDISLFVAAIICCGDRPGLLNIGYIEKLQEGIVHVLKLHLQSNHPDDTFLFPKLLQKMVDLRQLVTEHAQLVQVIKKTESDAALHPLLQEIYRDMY
Procedure: H4IIE rat hepatoma cell line was obtained from ATCC. Cells were cultured in 175 cm^2 tissue culture flask or seeded in 96-well plate with (high serum content, 10% fetal bovine serum and 10% calf serum) culture medium and maintained at 37° C. and 5% CO2 throughout study. Twenty-four hours after the initial seeding of the 96-well plate by hand (approximate 100,000/well), the HD gene induction assay was initiated. Media was removed and replaced with 100 ul of low serum culture media (5% charcoal/dextran treated calf serum) containing vehicle (DMSO) or test compounds or standard. Cells returned to incubator for 24 hours culture. At the termination of the challenge, 50 ul lysis buffer with HD gene specific CE, LE, BL probes was added directly into each well to initiate the is bDNA HD mRNA assay. The branched DNA assay was performed according to the manufacturer's protocol (Bayer Diagnostics; Emeryville. Calif.). At the end of the assay, the luminescence was quantitated in Dynex MLX microtiter plate luminometer. EC50's were determined by non-linear regression with a sigmoidal fit utilizing Graphpad Prism.

Row | SMILES | EC50 ([1]; bracketed values) [µM] | EC50 ([2]; bracketed values) [µM] | activity of the (R) isomer relative to the (S) isomer [3] | pEC50 [4] | PPARγ FI [1] | PPARδ FI [2]
1 | CCN(C(=O)Nc1ccc(OC(F)(F)F)cc1)[C@@H]1Cc2ccc(SC(C)(C)C(=O)O)cc2C1 [Example 3, (R)-2-{2-[1-Ethyl-3-(4-trifluoromethoxyphenyl)ureido]indan-5-ylsulfanyl}-2-methylpropionic acid] | > 10 | > 10 | more active than the (S) isomer | 8.10 | – | –
2 | CCN(C(=O)Nc1ccc(N(C)C)cc1)C1Cc2ccc(SC(C)(C)C(=O)O)cc2C1 (stereo not shown) [Example 7, 2-{2-[3-(4-Dimethylaminophenyl)-1-ethylureido]indan-5-ylsulfanyl}-2-methylpropionic acid] | – | – | – | – | 0 | 0.8
3 | CCCCCN(C(=O)Nc1ccc(OC(F)(F)F)cc1)C1Cc2ccc(SC(C)(C)C(=O)O)cc2C1 (stereo not shown) [Example 8, 2-Methyl-2-{2-[1-pentyl-3-(4-trifluoromethoxyphenyl)ureido]indan-5-ylsulfanyl}-2-methylpropionic acid] | – | – | – | – | 1.9 | 5.9
4 | CCCCCN(C(=O)Nc1ccc(N(C)C)cc1)C1Cc2ccc(SC(C)(C)C(=O)O)cc2C1 (stereo not shown) [Example 9, 2-{2-[3-(4-Dimethylaminophenyl)-1-pentylureido]indan-5-ylsulfanyl}-2-methylpropionic acid] | – | – | – | – | 2.9 | 1.0
5 | CCCCCN(C(=O)Nc1ccc(C(C)C)cc1)C1Cc2ccc(SC(C)(C)C(=O)O)cc2C1 (stereo not shown) [Example 10, 2-{2-[3-(4-Isopropylphenyl)-1-(pentyl)ureido]indan-5-ylsulfanyl}-2-methylpropionic acid] | – | – | – | 6.78 | 5.1 | –
6 | CCCCCN(C(=O)Nc1ccc(C(C)(C)C)cc1)C1Cc2ccc(SC(C)(C)C(=O)O)cc2C1 (stereo not shown) [Example 11, 2-{2-[3-(4-tert-butylphenyl)-1-(pentyl)ureido]indan-5-ylsulfanyl}-2-methylpropionic acid] | – | – | – | 6.76 | 6.1 | –
7 | CCCCCCN(C(=O)Nc1ccc(OC(F)(F)F)cc1)C1Cc2ccc(SC(C)(C)C(=O)O)cc2C1 (stereo not shown) [Example 14, 2-Methyl-2-{2-[1-hexyl-3-(4-trifluoromethoxyphenyl)ureido]indan-5-ylsulfanyl}propionic acid] | – | – | – | – | 0.3 | 1.3
